Assay results as given in article PMC10537604, “Development and Assessment of 1,5–Diarylpyrazole/Oxime Hybrids Targeting EGFR and JNK–2 as Antiproliferative Agents: A Comprehensive Study through Synthesis, Molecular Docking, and Evaluation” (Molecules, 2023).
pIC50: −log10 of the molar value. Read-outs that look alike come from different tables or passages of the source.

Key:
[1] = tested on: human myelogenous leukemia cell line K562; assay: WST-8 antiproliferative assay, K562; format: cell-based; conditions: Homo sapiens
[2] = Nitric oxide release, Griess colorimetric method; format: physicochemical; conditions: phosphate buffer pH 7.4, N-acetylcysteine
Method: For the indirect determination of NO, the Griess colorimetric approach was utilized, which includes spectrophotometry measurements of the stable decomposition products NO2^− and NO3^−. This method requires that NO3^− is first reduced to NO2^− and then NO2^− is determined by the Griess reaction that includes two steps, the first step is a diazotization reaction in which the NO-derived nitrogen agent, dinitrogen trioxide (N2O3), which is produced by the spontaneous oxidation of NO with sulfanilamide to form the diazonium ion, is used. […] In order to evaluate thiol-induced NO generation from the appropriate compounds, including NO-donating oximes 8a–b, 8d–i, and 10a–c, they were incubated in aqueous phosphate buffer of pH 7.4 in the presence of excess N-acetylcysteine, which serves as a source of thiols that are essential for the release of NO from oximes. The signal intensity of the dye is proportional to the amount of NO released. To quantify the amount of NO released, a standard curve was made by measuring the change in absorbance of various concentrations of standard sodium nitrite solutions treated by the same way. […] At the first hour, the amount of nitric oxide released increased in compounds 8i, 8b, and 8h, while the maximum release of nitric oxide occurring in compounds 8b and 8h was at 2 h. Then, the amount of nitic oxide released declined, which may explain the biological importance of oxime moiety as a source of nitric oxide release in comparison with ketone intermediates 7a–j and 9a–c, as shown in the anticancer activity of oxime derivatives.
The nitrite calibration curve in addition to the absorbance of the tested compounds were measured on Shimadzu UV-160, UV-Visible spectrophotometer (Shimadzu, Tokyo, Japan). The tested compounds were prepared as solutions in DMF and diluted with the buffer system until a concentration of 100 mM. N-Acetyl cysteine solution was prepared in a concentration of 500 mM in methanol. Griess reagent consists of 0.1% w/v NED solution in water and sulfanilamide solution (1% w/v of sulfanilamide in 5% w/v phosphoric acid). Nitrite standard solution (0.1 M sodium nitrite in water) stock solution was prepared, from which a dilute solution of 100 μM nitrite solution was prepared by dilution 1 mL of the stock solution to 1000 mL with phosphate buffer of pH 7.4. From this solution, 4 serials 2-fold dilutions were performed to generate different concentrations of the nitrite solution (100.00, 50.00, 25.00, and 12.50 μM) and these concentrations were used for nitrite calibration curve.
Sulfanilamide and NEDD solutions were kept at 25 °C; […] of sulfanilamide solution was added to each dilution of the prepared standard nitrite solution. The mixture was left at 25 °C for 5–10 min protected from light. To this mixture, […] of the NEDD solution was added and the mixture was again left for 5–10 min at 25 °C protected from light. […] A plot of the average absorbance value for each concentration of the nitrite standard solution as a function of “Y” against nitrite concentration as a function of “X” was constructed to generate a standard nitrite calibration curve at pH 7.4.
The amount of NO released from the tested compounds 8a–b, 8d–I, and 10a–c was measured using the Griess colorimetric method either in phosphate buffer of pH 7.4 in the presence of N-acetyl cysteine, which serves as a source of thiols. The amount of NO released from the tested compounds was measured relative to NO released from standard sodium nitrite solution.
Different solutions of the tested compounds 8a–b, 8d–i, and 10a–c in DMF were diluted using phosphate buffer of pH 7.4 till a final concentration of 100 mM (test solutions). To […] of different test solutions, […] of N-acetyl cysteine solution was added and the obtained solution was kept in an incubator at 37 °C (treated solutions). […]

Row | SMILES | inhibition at 100 µM ([1]; K562, 100 µM, WST-8 assay, read-out: Growth Inhibition (GI%) K562) [%] | pIC50 ([1]; K562, WST-8 assay, six concentrations 1-100 µM, read-out: IC50 K562) | Amount of NO Released (mol/mol) 1 h [2] [mol/mol] | Amount of NO Released (mol/mol) 2 h [2] [mol/mol] | Amount of NO Released (mol/mol) 3 h [2] [mol/mol] | Amount of NO Released (mol/mol) 4 h [2] [mol/mol] | inhibition at 100 µM ([1]; K562, read-out: Growth Inhibition (GI%) K562) [%] | pIC50 ([1]; K562, read-out: IC50 K562, WST-8 assay, six concentrations 1-100 µM)
1 | COc1ccc(-c2cc(C(=O)Nc3ccc(/C(C)=N/O)cc3)nn2-c2ccc(S(N)(=O)=O)cc2)cc1OC [Compound 10c, (E)–5–(3,4–Dimethoxyphenyl)–N–(4–(1–(hydroxyimino)ethyl)phenyl)–1–(4–sulfamoyl phenyl)–1H–pyrazole–3–carboxamide] | 87 | 4.54 | 0.075 ± 0.036 | 0.151 ± 0.049 | 0.114 ± 0.030 | 0.081 ± 0.020 | – | –
2 | COc1cc(/C(C)=N/O)ccc1OC(=O)c1cc(-c2ccc(Cl)cc2)n(-c2ccccc2)n1 [Compound 8d, (E)–4–(1–(Hydroxyimino)ethyl)–2–methoxyphenyl 5–(4–chlorophenyl)–1–phenyl–1H–pyrazole–3–carboxylate] | – | – | 0.096 ± 0.036 | 0.106 ± 0.040 | 0.101 ± 0.038 | 0.079 ± 0.030 | 95 | 5.05
